“Also recorded” adds a separate entry of the source.
Legend:
[1] = system: HeLa cells; experiment: Cytotoxicity studies, Alamar Blue cell viability; type: cell-based; conditions: HeLa cells, 24, 48, and 72 hours; 5 μM 11-E/11-Z, 1 μM MitoTracker Red FM
Description: In a 96-well plate, HeLa cells were plated at 5,000 cells/well in culture media as described above (50 μL/well) and incubated at 37° C. in a humidified atmosphere with 5% CO2. After 24 hours, cells were treated with 11-E/11-Z (final concentration was 5 μM), MitoTracker Red FM (final concentration was 1 μM), and DMSO (vehicle control for MitoTracker). For wells treated with MitoTracker and DMSO, DMSO concentration was kept at 1%. Untreated cells were used as vehicle control for 11-E/11-Z. Final volumes were 100 μL/well. Cells were incubated at 37° C. in 5% CO2 for 24, 48, or 72 hours. Alamar Blue (10 μL) was added 2 hours prior to fluorescence measurement. Fluorescence was measured at 560 nm excitation and 590 nm emission. Vehicle control was taken as 100% cell viability.

[2] = system: mito-GFP cell line (GFP localized to the outer mitochondria membrane); experiment: Colocalization with GFP-labeled mitochondria in mito-GFP HeLa cells; type: cell-based
Description: For live cell imaging, HeLa cells and HeLa cells expressing a mitochondrial outer membrane targeting domain from Listeria monocytogenes (ActA, C-terminal 47 amino acids) fused to a HaloTag-GFP construct (Ballister et al., 2014, Nat. Commun. 5: 4575) were used. Cells were cultured in a 60 mm culture dish using Life Technologies Dulbecco's Modified Eagle Medium (DMEM) media with phenol red, 10% Fetal Bovine Serum and 1% penicillin-streptomycin at 37° C. in a humidified atmosphere with 5% CO2. The cells were detached with 0.05% trypsin-EDTA and transferred to a 35 mm glass bottom poly-D-lysine coated dish 2-5 days before imaging with about 2 mL of the above-mentioned media. A 5 mM solution of 11-E/11-Z in MiliQ water and a 1 mM solution of MitoTracker Red FM in DMSO were prepared. Two microliter of each solution was mixed with 2 mL new media and added to the cells after the old media was removed. After incubation (3 hours to overnight for 11-E/11-Z and 1 hour for MitoTracker Red FM), the excess dyes were washed twice with non-phenol red DMEM before imaging. The cells were kept in 2 mL non-phenol red DMEM during imaging.
A Leica TCS SP8 confocal microscope equipped with a 63×/1.4 NA oil immersion objective lens was used in FIG. 2A, 3E, S2, S3, and S4. To selectively observe 11-E/11-Z, the excitation wavelength of 405 nm and the emission wavelength range of 620-650 were used. To selectively observe MitoTracker Red FM, the excitation wavelength of 638 nm and the emission wavelength range of 650-700 were used. To selectively observe GFP, the excitation wavelength of 488 nm and the emission wavelength range of 500-550 were used.
Photoproduct 12 is red-shifted in both absorbance and emission by approximately 100 nm while retaining a large Stokes shift of 108 nm (FIG. 44C). […]
Incubating mito-GFP cells with 11-E/11-Z allowed colocalization to be assessed (FIGS. 45A and 54).

[3] = Photophysical properties (absorption, emission, extinction coefficient, quantum yield); type: physicochemical
Description: n-Butyllithium in hexanes was purchased from Acros and titrated with diphenylacetic acid, which was recrystallized from toluene. All other reagents were purchased from Sigma Aldrich and used without further purification. Solvents were purchased from either Sigma Aldrich or Fisher Scientific. Anhydrous solvents were purchased from Fisher Scientific and dried by passing through an alumina column of a solvent purification system. Silica gel (230-400 mesh) used for column chromatography was purchased from Silicycle. Thin layer chromatography plates (250 μm thickness) were purchased from Sorbent Technologies. Revered-phase column chromatography was done using a RediSep Rf Gold C18 column on a Teledyne Isco CombiFlash Rf system. High-performance liquid chromatography (HPLC) was performed on a Jasco HPLC system using a Phenomenex column (Luna 5u C18(2) 100A; 250×4.60 mm, 5 micron). UV absorption spectra were obtained on a Jasco V-650 spectrophotometer using a 1 cm path length quartz cuvette. Fluorescence emission spectra were taken on a Horiba Jobin-Yvon FluoroLog using a 1 cm path length fluorescence quartz cuvette. ^1H-NMR and ^13C-NMR were recorded on either a Bruker DMX 500 (500 MHz) or a Bruker AVII 500 (500 MHz). High-resolution mass spectrometry was performed using a Waters LCT Premier XE Mass Spectrometer (model KE 332). […] was performed using a Bruker APEX2-DUO CCD X-ray Diffractometer. Photoreactions were carried out in a Rayonet Photochemical Reactor (model RPR-100). Quantum yield was determined by serial dilution method using coumarine 153 (in ethanol, Φ=0.38) and fluorescein (in NaOH 0.1 M, Φ=0.95) as standards (Yvon, A guide to recording Fluorescence Quantum Yields, http://www.horiba.com/fileadmin/uploads/Scientific/Documents/Fluorescence/quantumyie ldstrad.pdf, accessed Jul. 13, 2014; Brouwer, 2011, Pure Appl. Chem. 83: 2213-2228)

[4] = Stability of aqueous solution under ambient light (HPLC); type: physicochemical; conditions: 1 mM in water, 25° C., 10 days
Description: The stability of 1 mM aqueous solution of 11-E/11-Z was assessed under ambient light conditions at 25° C. for 10 days. […] HPLC chromatograms of compounds 11-E/11-Z and 12 can be seen in FIGS. 57 and 58.

[5] = system: HeLa cells; experiment: Intracellular photoactivation of 11-E/11-Z to 12 in live HeLa cells; type: cell-based; conditions: 200 alternating 150 ms pulses, one phase exponential fit
Description: A Leica DM4000 spinning disk confocal microscope equipped with a 100×1.4 NA oil immersion objective was used in FIGS. 3A and 3B. In FIG. 3A, two channels were used. The first channel has 444 nm excitation wavelength and 525 nm emission wavelength (emission bandpass filter, bandwidth=36 nm). The second channel has 488 nm excitation wavelength and 632 nm emission wavelength (emission bandpass filter, bandwidth=60 nm). The two channels were used alternatingly to carry out 200 150-ms pulses. In FIG. 46B, selective activation was carried out by short pulse (about 1 second) using a 405 nm laser (CrystaLaser, DL405-050-O) controlled by the iLas2 module in Metamorph. All image processing was done using ImageJ. All curve fitting was done using Prism.
By combining the observed photoreaction (FIG. 44A) and the ability to selectively label mitochondria for live cell imaging (FIG. 45A), intracellular photoactivation of 11-E/11-Z was attempted. The roughly 100 nm red-shifted absorbance and emission spectra of 12 compared to 11-E/11-Z allowed for selective excitation of individual species. […] A significant increase in the intensity of […] was achieved after 30 seconds, using 200 total scans (FIG. 46A, 46B). […] Immediately after the first activation, a bright signal was detected at the targeted region (box 1). […]

[6] = system: HeLa cells; experiment: Confocal microscopy of stained live HeLa cells (subcellular localization, cell permeability); conditions: confocal microscopy
Description: Confocal microscopy was done on a Yokogawa spinning disk inverted microscope with a 100× lens. Each batch of stained cells was imaged by exciting with a 488 nm laser while observing at 503-545 nm (the green overlay images), exciting with a 561 nm laser while observing at 583-650 nm (the red overlay images), and by DIC (the grey images) (FIG. 8).
A 444 nm excitation was required to image with compounds 2 and 3 (FIG. 18).

Stokes shift [3]: 135 nm | Abs λmax ([3]; in water): 408 nm | Em λmax ([3]; in water): 543 nm | extinction coefficient ε ([3]; solvent: water): 11040 M⁻¹ cm⁻¹ | quantum yield Φ ([3]; solvent: water): 0.021
Structure (SMILES): C[n+]1cccc2c1/C(=C1\c3ccccc3Oc3cccnc31)c1ccccc1O2 (racemic) [11-E/11-Z]
cytotoxicity [1]: very low cytotoxicity | Manders' overlap coefficient (first) [2]: 0.98±0.01 | Manders' overlap coefficient (second) [2]: 1.00±0.00 | Spearman correlation with GFP ([2]; 80 cells): 0.88±0.02 | stability of aqueous solution under ambient light [4]: No decomposition or photoproduct; also recorded: no evidence for decomposition or photoconversion | rate constant, 444/525 channel [5]: 0.060 s⁻¹ | rate constant, 488/632 channel [5]: 0.030 s⁻¹ | staining specificity / subcellular localization [6]: consistent with mitochondrial uptake; also recorded: near exclusive mitochondrial localization

Reference: patent US10487089B2, “Imaging agents and methods of identifying same” (The Trustees of the University of Pennsylvania, priority 2014, dated 2019)
